Tests used:
[1] = molecular target: T1, Prostaglandin G/H synthase 2 (Homo sapiens) (UniProt P35354); experiment: Inhibition of COX2 in HCA-7 cells assessed as reduction in PGE2 release at 12 uM after 48 hrs by ELISA relative to control; format: cell-based
T1 sequence (whole entry): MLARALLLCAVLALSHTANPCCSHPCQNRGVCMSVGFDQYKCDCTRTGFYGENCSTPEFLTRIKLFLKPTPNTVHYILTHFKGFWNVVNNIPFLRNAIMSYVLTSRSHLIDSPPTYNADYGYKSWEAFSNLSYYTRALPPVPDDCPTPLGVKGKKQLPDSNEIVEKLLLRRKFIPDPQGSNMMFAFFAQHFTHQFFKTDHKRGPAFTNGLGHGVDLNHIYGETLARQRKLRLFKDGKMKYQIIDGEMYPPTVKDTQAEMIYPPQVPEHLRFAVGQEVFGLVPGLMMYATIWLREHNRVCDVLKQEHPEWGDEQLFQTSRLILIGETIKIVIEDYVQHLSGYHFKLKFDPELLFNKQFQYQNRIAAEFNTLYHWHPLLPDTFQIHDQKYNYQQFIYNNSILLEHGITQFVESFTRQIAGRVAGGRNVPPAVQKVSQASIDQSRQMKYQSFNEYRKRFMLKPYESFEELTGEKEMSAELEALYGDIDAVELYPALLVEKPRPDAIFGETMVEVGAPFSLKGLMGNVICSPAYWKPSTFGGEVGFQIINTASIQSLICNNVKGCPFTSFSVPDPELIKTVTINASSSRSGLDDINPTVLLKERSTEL

[2] = Inhibition of COX2 expression in HCA-7 cells at 12 uM after 48 hrs by Western blot method relative to control; format: functional; conditions: Homo sapiens, HCA-7, 48 h
[3] = Inhibition of COX2 expression in HCA-7 cells at 1 mM after 48 hrs by Western blot method relative to control; format: functional; conditions: Homo sapiens, HCA-7, 48 h

Row | inhibition [1] [%] | Compound | inhibition at 12 µM [2] [%] | inhibition at 1000 µM [3] [%]
1 | 20 | COc1ccc(/C=C2\COc3cc(O)c(O)c(O)c3C2=O)cc1O | 10 | –
2 | – | CC(=O)Oc1ccccc1C(=O)O [ASPIRIN] | – | 12
3 | 11 | COc1ccc(/C=C2\COc3cc(O)cc(O)c3C2=O)cc1OC(C)=O | 8 | –

From ChEMBL document CHEMBL4004798, “Phytochemical Investigations of Three Rhodocodon (Hyacinthaceae Sensu APG II) Species” (2017)
